Results on one cell line are retold here after the supplement of paper PMC10307832.

Holding throughout (assay): relative viability (nuclei count vs DMSO), 5 days (fraction); higher = more cells survive
Compound in the assay “SGI-1776 + Phenformin”: CN1CCC(CNc2ccc3ncc(-c4cccc(OC(F)(F)F)c4)n3n2)CC1 [SGI-1776] + N=C(N)NC(=N)NCCc1ccccc1 [Phenformin] (partner 250 µM)
The method in brief: (§1)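 Five library-drug doses in √10 steps were combined with a fixed anchor-drug dose, or a single drug was given alone, by pin tool to lung cancer cell lines in 1536-well plates the day after seeding. Nuclei were stained and counted after 5 days. Relative viability is the nuclei count in treated wells over that in vehicle wells, taken as the median of duplicate plates.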

Compound in the assay “Entinostat + Olaparib”: Nc1ccccc1NC(=O)c1ccc(CNC(=O)OCc2cccnc2)cc1 [Entinostat] + O=C(c1cc(Cc2n[nH]c(=O)c3ccccc23)ccc1F)N1CCN(C(=O)C2CC2)CC1 [Olaparib] (partner 8 µM)
In a few lines: as §1

Compound in assay [1]: C1COCCN1C2=NC(=NC3=C2OC4=C3C=CC=N4)C5=CC(=CC=C5)NC(=O)C6=CN=C(C=C6)N + O=C(c1cc(Cc2n[nH]c(=O)c3ccccc23)ccc1F)N1CCN(C(=O)C2CC2)CC1 [Olaparib] (partner 8 µM)
The method in brief: as §1

Compound in the assay “Entinostat + Palbociclib”: Nc1ccccc1NC(=O)c1ccc(CNC(=O)OCc2cccnc2)cc1 [Entinostat] + CC(=O)c1c(C)c2cnc(Nc3ccc(N4CCNCC4)cn3)nc2n(C2CCCC2)c1=O [Palbociclib] (partner 0.5 µM)
The method in brief: as §1

On to UMC-11, for which the relative viability worked out at 0.31 with SGI-1776 + Phenformin (first compound 0.08 µM); 0.322 with SGI-1776 + Phenformin (first compound 0.8 µM); 0.302 in the assay with SGI-1776 + Phenformin (first compound 2.53 µM); 0.252 in the assay with SGI-1776 + Phenformin (first compound 8 µM); 0.376 in the assay with Entinostat + Olaparib (first compound 0.02 µM); 0.345 with Entinostat + Olaparib (first compound 0.06325 µM). Besides, the relative viability came out at 0.242 with Entinostat + Olaparib (first compound 0.2 µM); 0.116 with Entinostat + Olaparib (first compound 0.6325 µM); 0.0922 with Entinostat + Olaparib (first compound 2 µM); 0.374 in assay [1] (first compound 0.02 µM); 0.37 in assay [1] (first compound 0.06325 µM); 0.354 in assay [1] (first compound 0.2 µM). Further, the relative viability in assay [1] (first compound 0.6325 µM) was determined as 0.359; in assay [1] (first compound 2 µM), 0.246; in the assay with Entinostat + Palbociclib (first compound 0.02 µM), 0.367; in the assay with Entinostat + Palbociclib (first compound 0.06325 µM), 0.338; in the assay with Entinostat + Palbociclib (first compound 0.2 µM) it was 0.367; with Entinostat + Palbociclib (first compound 0.6325 µM) it was 0.274. Further, the relative viability with Entinostat + Palbociclib (first compound 2 µM) turned out to be 0.202.
